Source: patent US20250144067A1, “PERSONALIZED STARVATION THERAPY FOR CANCER” (Faeth Therapeutics, Inc., priority 2021, published 2025)
Counter-ions that a name gives are not always drawn. Numbered stars: 1 amine (or outer) side, 2 acyl side, 3 side chain; on linkers, the order of the positions; unused ones are H or OH. Bridge positions count the residues as written; N and C are the ends. Peptide text beside a SMILES is read from it. X2 = O=C(CCC[*:2])[*:1]

What was measured:
[1] = system: NCI-H292 lung cancer cells; test: FDA drug screening, complete media vs cholesterol-free media without statin (TABLE 1); assay type: cell-based, human
[2] = system: NCI-H292 lung cancer cells; test: FDA drug screening, complete media vs cholesterol-free media with simvastatin (TABLE 2); assay type: cell-based, human; conditions: for Cholesterol-free media + simvastatin (0.04 μM) / Complete Media: NCI-H292 cells
[3] = Complete minus Cholesterol-free; […]
[4] = NCI-H292 cells, cholesterol-free media without statin
[5] = FDA drug library screen, cholesterol-free media with simvastatin 0.04 μM
[6] = FDA drug library screen, complete media
[7] = complete media minus cholesterol-free media + simvastatin, […]
[8] = Complete minus Cholesterol-free; greater than 0 enhanced anti-cancer activity, about 0 neutral, below 0 antagonist
[9] = NCI-H292 cells, FDA drug library screen, cholesterol-free media without statin
[10] = NCI-H292 cells, FDA drug library screen, complete media
[11] = FDA library drug in cholesterol-free media with simvastatin 0.04 μM
[12] = FDA library drug in complete media
[13] = complete media vs cholesterol-free media + simvastatin (0.04 μM), >0 enhanced anti-cancer activity, about 0 neutral, <0 antagonist
[14] = NCI-H292 cells, cholesterol-free media without statin, FDA drug library screen
[15] = NCI-H292 cells, complete media, FDA drug library screen
[16] = cholesterol-free media with simvastatin 0.04 μM, cell growth value in FDA drug screen
[17] = complete media, cell growth value in FDA drug screen
[18] = complete media minus cholesterol-free media + simvastatin, >0 enhanced anti-cancer activity, about 0 neutral, <0 antagonist
[19] = cholesterol-free media with simvastatin 0.04 μM, FDA drug library screen (TABLE 2)
[20] = complete media, FDA drug library screen (TABLE 2)
[21] = drug in cholesterol-free media with simvastatin 0.04 μM

CC[C@H](C)[C@@H]1NC(=O)[C@H](Cc2ccc(OC)cc2)NC(=O)CCCSC[C@@H](C(=O)N2CCC[C@H]2C(=O)N[C@@H](CC(C)C)C(=O)NCC(N)=O)NC(=O)[C@H](CC(N)=O)NC(=O)[C@H](CCC(N)=O)NC1=O [Carbetocin] (Y(Me)IQNCPLG-NH2; linker N-5 via X2)
Difference [1, 3]: −0.26
Cholesterol-free [1, 4]: 1.283
Complete ([1]; NCI-H292 cells, complete media): 1.021
Cholesterol-free media + simvastatin (0.04 μM) [2, 5]: 1.6
Complete Media [2, 6]: 1.76
Difference [2, 7]: 0.16

C[C@@](Cc1ccc(O)c(O)c1)(NN)C(=O)O [Carbidopa]
Difference [1, 8]: −0.16
Cholesterol-free [1, 9]: 1.15
Complete [1, 10]: 0.9946
Cholesterol-free media + simvastatin (0.04 μM) [2, 11]: 1.956
Complete Media [2, 12]: 1.221
Difference [2, 13]: −0.74

CCOC(=O)n1ccn(C)c1=S [Carbimazole]
Cholesterol-free [1, 14]: 1.183
Complete [1, 15]: 1.469
Difference ([1]; complete vs cholesterol-free media; >0 enhanced anti-cancer activity, about 0 neutral, <0 antagonist): 0.29
Cholesterol-free media + simvastatin (0.04 μM) [2, 16]: 1.468
Complete Media [2, 17]: 1.519
Difference [2, 18]: 0.05

N[C@@H](CSCC(=O)O)C(=O)O [Carbocisteine]
Difference ([1]; Complete minus Cholesterol-free; >0 enhanced anti-cancer activity, about 0 neutral, <0 antagonist): −0.04
Cholesterol-free [1, 14]: 1.486
Complete [1, 15]: 1.447
Cholesterol-free media + simvastatin (0.04 μM) [2, 19]: 0.934
Complete Media [2, 20]: 0.9494
Difference ([2]; complete media minus cholesterol-free media + simvastatin (0.04 μM), >0 enhanced anti-cancer activity, about 0 neutral, <0 antagonist): 0.02

CCCCC[C@](C)(O)/C=C/[C@@H]1[C@@H](C/C=C\CCCC(=O)O)[C@@H](O)C[C@H]1O.NC(CO)(CO)CO [Carboprost (tromethamine)]
Difference [1, 8]: −0.14
Cholesterol-free [1, 9]: 1.222
Complete [1, 10]: 1.08
Cholesterol-free media + simvastatin (0.04 μM) [2, 11]: 1.591
Complete Media [2, 12]: 1.306
Difference [2, 13]: −0.29

CC1=C(C(=O)Nc2ccccc2)SCCO1 [Carboxin]
Difference [1, 3]: −0.07
Cholesterol-free [1, 14]: 1.397
Complete [1, 15]: 1.326
Cholesterol-free media + simvastatin (0.04 μM) [2, 19]: 0.9577
Complete Media [2, 20]: 0.9272
Difference ([2]; complete media minus cholesterol-free media + simvastatin (0.04 μM), […]): −0.03

C[N+](C)(CC(=O)Nc1ccccc1)CC(=O)Nc1ccccc1.[Cl-] [Carcainium (chloride)]
Difference [1, 3]: 0.01
Cholesterol-free [1, 14]: 0.9985
Complete [1, 15]: 1.004
Cholesterol-free media + simvastatin (0.04 μM) ([2]; cholesterol-free media with simvastatin 0.04 μM, […]): 1.019
Complete Media ([2]; complete media, […]): 1.155
Difference [2, 7]: 0.14

NC(=O)N[C@@H](CCC(=O)O)C(=O)O [Carglumic Acid]
Difference [1, 8]: −0.10
Cholesterol-free [1, 9]: 1.036
Complete [1, 10]: 0.9389
Cholesterol-free media + simvastatin (0.04 μM) [2, 5]: 0.9383
Complete Media [2, 6]: 1.207
Difference [2, 18]: 0.27

CN(C)C(=O)N[C@H]1CC[C@H](CCN2CCN(c3cccc(Cl)c3Cl)CC2)CC1 [Cariprazine (hydrochloride)]
Difference [1, 8]: −0.14
Cholesterol-free [1, 9]: 1.158
Complete [1, 10]: 1.021
Cholesterol-free media + simvastatin (0.04 μM) [2, 5]: 1.127
Complete Media [2, 6]: 1.452
Difference [2, 18]: 0.32

CCCCCCNC(=O)n1cc(F)c(=O)[nH]c1=O [Carmofur]
Cholesterol-free [1, 4]: 0.5487
Complete ([1]; NCI-H292 cells, complete media): 0.2009
Difference ([1]; complete vs cholesterol-free media; greater than 0 enhanced anti-cancer activity, about 0 neutral, below 0 antagonists): −0.35
Cholesterol-free media + simvastatin (0.04 μM) [2, 21]: 0.7692
Complete Media ([2]; drug in complete media): 0.6005
Difference [2, 13]: −0.17

O=NN(CCCl)C(=O)NCCCl [Carmustine]
Difference [1, 3]: −0.25
Cholesterol-free [1, 4]: 0.9766
Complete ([1]; NCI-H292 cells, complete media): 0.7259
Cholesterol-free media + simvastatin (0.04 μM) [2, 5]: 1.071
Complete Media [2, 6]: 1.247
Difference [2, 7]: 0.18

CC(C(=O)O)c1ccc2c(c1)[nH]c1ccc(Cl)cc12 (stereo not drawn) [Carprofen]
Difference [1, 8]: −0.18
Cholesterol-free [1, 9]: 1.071
Complete [1, 10]: 0.886
Cholesterol-free media + simvastatin (0.04 μM) [2, 16]: 0.8634
Complete Media [2, 17]: 0.98
Difference [2, 18]: 0.12

CC(C)(C)NCC(O)COc1cccc2c1CCC(=O)N2 (stereo not drawn) [Carteolol hydrochloride]
Difference [1, 8]: −0.19
Cholesterol-free [1, 9]: 1.114
Complete [1, 10]: 0.9284
Cholesterol-free media + simvastatin (0.04 μM) [2, 21]: 1.125
Complete Media ([2]; drug in complete media): 0.8865
Difference [2, 13]: −0.24
